Two compounds from ChEMBL document CHEMBL5034000, “Novel Bisubstrate Inhibitors for Protein N-Terminal Acetyltransferase D” (J Med Chem, 2021) can be followed below.

The structures appear in SMILES notation. The source made the active and inactive calls. The calls are words filed in the database; no cut-off is given here. Where a SMILES comes first, the peptide text is derived from it. [ ]: non-standard residue; d: D form. The star is where a group is joined. X2 = CC(C)(COP(=O)(O)OP(=O)(O)OC[C@H]1O[C@@H](n2cnc3c(N)ncnc32)[C@H](OP(=O)(O)O)[C@@H]1O)C(O)C(=O)NCCC(=O)NCC*; Mpa = O=C(O)CCS

A short description of data set [1]: Drug uptake in digitonin treated human HCT116 cells measured at 100 uM after 2 hrs of incubation by MALDI-MS. Type of data set: ADME, cell-based. Particulars: hct-116, 2 h.
Data set [2] is filed under the species Homo sapiens. As to the kind of experiment: Selectivity ratio of inhibition of human NatA to inhibition of human NatD.
In data set [3] the target is N-alpha-acetyltransferase 40 (Homo sapiens) (UniProt Q86UY6). As to the kind of experiment: Non-competitive inhibition of human NatD using various concentration of [14C]acetyl-CoA and fixed human H4 peptide as substrate measured after 13 mins radioactive assay.
In data set [4] the target is T1, Histone acetyltransferase KAT8 (Homo sapiens) (UniProt Q9H7Z6).
T1 sequence (whole entry): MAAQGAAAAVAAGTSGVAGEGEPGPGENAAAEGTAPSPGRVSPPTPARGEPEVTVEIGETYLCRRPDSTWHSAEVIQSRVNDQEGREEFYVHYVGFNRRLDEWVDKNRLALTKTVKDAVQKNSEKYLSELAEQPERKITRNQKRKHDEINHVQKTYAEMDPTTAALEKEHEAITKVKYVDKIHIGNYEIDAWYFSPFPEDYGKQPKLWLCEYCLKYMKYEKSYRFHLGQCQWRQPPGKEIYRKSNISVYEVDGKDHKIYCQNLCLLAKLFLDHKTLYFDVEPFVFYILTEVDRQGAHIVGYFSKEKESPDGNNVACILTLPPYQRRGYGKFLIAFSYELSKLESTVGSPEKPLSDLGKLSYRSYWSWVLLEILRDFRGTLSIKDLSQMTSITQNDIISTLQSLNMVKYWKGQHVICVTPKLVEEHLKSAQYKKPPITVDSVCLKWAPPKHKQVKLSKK
As to the kind of experiment: Inhibition of human MOF using AcCoA and H4 peptide as substrate at 1 uM incubated for 20 min at room temperature relative to control.

The species entered for data set [5] is Homo sapiens. The data set is described as follows: Inhibition of human NatB using AcCoA and MDVF peptide as substrate at 10 uM incubated for 10 min at room temperature.
Data set [6] is filed under the species Homo sapiens. The data set is described as follows: Selectivity ratio of inhibition of human MOF to inhibition of human NatD.
Data set [7] addresses N-alpha-acetyltransferase 40 (Homo sapiens) (UniProt Q86UY6). Particulars: HCT-116, Lysate, dose 100.0 µM, time 2.0 hrs.
Data set [8] is filed under the species Homo sapiens. The data set is described as follows: Inhibition of human NatA using AcCoA and H4 peptide as substrate at 1 uM incubated for 12 min at room temperature relative to control.
Data set [9] has as its system NatC (Schizosaccharomyces pombe). As to the kind of experiment: Inhibition of Schizosaccharomyces pombe NatC using AcCoA and MLRF peptide as substrate at 10 uM incubated for 5 min at room temperature.
Data set [10] has as its target Histone acetyltransferase KAT2B (Homo sapiens) (UniProt Q92831). The data set is described as follows: Inhibition of human PCAF using AcCoA and H4 peptide as substrate at 10 uM incubated for 20 min at room temperature.
Data set [11] has as its target T2, N-alpha-acetyltransferase 50 (Homo sapiens) (UniProt Q9GZZ1).
T2 sequence (whole entry): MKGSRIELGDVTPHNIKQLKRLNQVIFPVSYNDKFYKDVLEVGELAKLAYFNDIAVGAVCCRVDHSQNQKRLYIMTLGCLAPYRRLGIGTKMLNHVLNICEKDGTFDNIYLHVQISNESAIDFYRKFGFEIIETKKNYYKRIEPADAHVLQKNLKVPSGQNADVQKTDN
As to the kind of experiment: Inhibition of human NatE using AcCoA and MLGP peptide as substrate at 10 uM incubated for 40 min at room temperature.

Data set [12] concerns NatC (Schizosaccharomyces pombe). The data set is described as follows: Selectivity ratio of inhibition of Schizosaccharomyces pombe NatC to inhibition of human NatD.

Histone acetyltransferase KAT2B (Homo sapiens), sequence (Q92831 whole entry, looked up): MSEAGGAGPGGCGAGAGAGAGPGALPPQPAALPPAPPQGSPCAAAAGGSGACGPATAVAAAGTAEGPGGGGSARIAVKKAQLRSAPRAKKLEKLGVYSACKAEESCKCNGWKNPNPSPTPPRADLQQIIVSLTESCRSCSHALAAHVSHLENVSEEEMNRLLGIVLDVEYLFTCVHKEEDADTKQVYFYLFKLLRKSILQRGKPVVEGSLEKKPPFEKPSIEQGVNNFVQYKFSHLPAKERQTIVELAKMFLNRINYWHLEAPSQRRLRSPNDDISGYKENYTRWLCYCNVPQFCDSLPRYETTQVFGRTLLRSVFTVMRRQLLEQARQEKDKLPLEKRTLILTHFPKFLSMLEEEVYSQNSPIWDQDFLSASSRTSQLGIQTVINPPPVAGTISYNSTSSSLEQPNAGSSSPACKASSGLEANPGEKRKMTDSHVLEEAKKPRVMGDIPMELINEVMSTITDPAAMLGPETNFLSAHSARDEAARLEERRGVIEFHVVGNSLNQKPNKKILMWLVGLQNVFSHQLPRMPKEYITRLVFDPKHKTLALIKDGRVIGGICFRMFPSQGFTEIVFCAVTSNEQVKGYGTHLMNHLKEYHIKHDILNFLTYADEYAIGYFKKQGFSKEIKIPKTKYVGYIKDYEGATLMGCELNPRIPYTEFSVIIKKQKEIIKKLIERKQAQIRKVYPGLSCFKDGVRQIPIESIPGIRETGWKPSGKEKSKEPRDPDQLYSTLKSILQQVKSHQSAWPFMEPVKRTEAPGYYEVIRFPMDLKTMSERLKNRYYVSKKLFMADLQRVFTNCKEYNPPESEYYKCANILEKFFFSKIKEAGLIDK

`CC(C)(COP(=O)(O)OP(=O)(O)OC[C@H]1O[C@@H](n2cnc3c(N)ncnc32)[C@H](OP(=O)(O)O)[C@@H]1O)C(O)C(=O)NCCC(=O)NCCSCCC(=O)N[C@@H](CO)C(=O)NCC(=O)N[C@@H](CCCNC(=N)N)C(=O)NCC(N)=O` (stereo partly drawn): the Drug uptake entry in data set [1] is recorded as “Active”.

`CC(C)(COP(=O)(O)OP(=O)(O)OC[C@H]1O[C@@H](n2cnc3c(N)ncnc32)[C@H](OP(=O)(O)O)[C@@H]1O)C(O)C(=O)NCCC(=O)NCCSCCC(=O)N[C@@H](CO)C(=O)NCC(=O)N[C@@H](CCCNC(=N)N)C(=O)NCC(=O)N[C@@H](CCCCN)C(N)=O` (stereo partly drawn) ([Mpa](X2)SGRGK-NH2): the Selectivity ratio in data set [2] turned out to be 1000; in data set [6], 1000; in data set [12] it was 10000. In [3], the alphaKi worked out at 2.1 nM. Also, the inhibition in data set [4] and in [8] was 10% each time. In addition, the inhibition entry in data set [5], in [9], in [10] and in data set [11] was “inactive” in each case. The compound further yielded a deltaT in data set [7] of 1.7 °C. The Drug uptake entry in data set [1] was “Active”.
